Test results taken from ChEMBL document CHEMBL1201862, “PubChem BioAssay data set” (2004).
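Values below derive from 48-hour exposures of cells grown in 96-well plates, with endpoints linearly interpolated between the two concentrations bracketing the appropriate inhibition level. GI50 marks 50% less growth.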 Activity calls are given as the source filed them. No stated cut-off is given here; in the data, active = GI50 up to about 1.1 µM and inactive = higher.

Key:
Experiment in all cases: growth of human tumour cells (NCI), 48 h
SK-MEL-5 = test system: SK-MEL-5
BT-549 = test system: BT-549
Hs-578T = test system: Hs-578T
KM12 = test system: KM12
A549 = test system: A549
HOP-92 = test system: HOP-92
NCI-H226 = test system: NCI-H226
DU-145 = test system: DU-145
SW-620 = test system: SW-620
OVCAR-5 = test system: OVCAR-5
PC-3 = test system: PC-3
SK-MEL-2 = test system: SK-MEL-2
SR = test system: SR
HCT-15 = test system: HCT-15
IGROV-1 = test system: IGROV-1
NCI-H460 = test system: NCI-H460
U-251 = test system: U-251
MDA-MB-435 = test system: MDA-MB-435
OVCAR-3 = test system: OVCAR-3
K562 = test system: K562
TK-10 = test system: TK-10
UO-31 = test system: UO-31
HCC 2998 = test system: HCC 2998
OVCAR-4 = test system: OVCAR-4
RXF 393 = test system: RXF 393
SF-268 = test system: SF-268
HL-60 = test system: HL-60
OVCAR-8 = test system: OVCAR-8
SNB-19 = test system: SNB-19
SNB-75 = test system: SNB-75
HT-29 = test system: HT-29
MDA-N = test system: MDA-N
MCF7 = test system: MCF7
786-0 = test system: 786-0
UACC-62 = test system: UACC-62
SK-MEL-28 = test system: SK-MEL-28
RPMI-8226 = test system: RPMI-8226
NCI/ADR-RES = test system: NCI/ADR-RES
M14 = test system: M14
SK-OV-3 = test system: SK-OV-3
COLO 205 = test system: COLO 205
NCI-H522 = test system: NCI-H522
SF-295 = test system: SF-295
ACHN = test system: ACHN
A498 = test system: A498
HOP-62 = test system: HOP-62
SN12C = test system: SN12C
EKVX = test system: EKVX
HCT-116 = test system: HCT-116
T47D = test system: T47D
SF-539 = test system: SF-539
MDA-MB-231 = test system: MDA-MB-231
UACC-257 = test system: UACC-257
Malme-3M = test system: Malme-3M
CAKI-1 = test system: CAKI-1
NCI-H23 = test system: NCI-H23
LOX IMVI = test system: LOX IMVI
CCRF-CEM = test system: CCRF-CEM
MOLT-4 = test system: MOLT-4

## COc1ccc(-n2nnc3c(C#N)c(-c4ccccc4)c(C)n3c2=O)cc1
SK-MEL-5
  GI50: 14.8 µM (inactive)
BT-549
  GI50: > 100 µM (inactive)
Hs-578T
  GI50: > 100 µM (inactive)
KM12
  GI50: 48.9 µM (inactive)
A549
  GI50: > 100 µM (inactive)
HOP-92
  GI50: 23.8 µM (inactive)
NCI-H226
  GI50: 85.1 µM (inactive)
DU-145
  GI50: 74.8 µM (inactive)
SW-620
  GI50: 27.2 µM (inactive)
OVCAR-5
  GI50: > 100 µM (inactive)
PC-3
  GI50: 29.2 µM (inactive)
SK-MEL-2
  GI50: 28 µM (inactive)
SR
  GI50: 7.45 µM (inactive)
HCT-15
  GI50: 31.4 µM
IGROV-1
  GI50: 24 µM (inactive)
NCI-H460
  GI50: 51.4 µM (inactive)
U-251
  GI50: 32.7 µM (inactive)
MDA-MB-435
  GI50: > 100 µM (inactive)
OVCAR-3
  GI50: 28.2 µM (inactive)
K562
  GI50: 18.4 µM (inactive)
TK-10
  GI50: 84.7 µM (inactive)
UO-31
  GI50: 71.3 µM (inactive)
HCC 2998
  GI50: 72.6 µM (inactive)
OVCAR-4
  GI50: 28.8 µM (inactive)
RXF 393
  GI50: 28.4 µM (inactive)
SF-268
  GI50: 83.4 µM (inactive)
HL-60
  GI50: 3.69 µM (inactive)
OVCAR-8
  GI50: 27.4 µM (inactive)
SNB-19
  GI50: 78.7 µM (inactive)
SNB-75
  GI50: 27.1 µM (inactive)
HT-29
  GI50: 43.9 µM (inactive)
MDA-N
  GI50: > 100 µM (inactive)
MCF7
  GI50: 40.2 µM (inactive)
786-0
  GI50: 19.1 µM (inactive)
UACC-62
  GI50: 53.7 µM (inactive)
SK-MEL-28
  GI50: > 100 µM (inactive)
RPMI-8226
  GI50: 26.1 µM (inactive)
NCI/ADR-RES
  GI50: 66.2 µM (inactive)
M14
  GI50: 81.8 µM (inactive)
SK-OV-3
  GI50: > 100 µM (inactive)
COLO 205
  GI50: 33.7 µM (inactive)
NCI-H522
  GI50: 22.6 µM (inactive)
SF-295
  GI50: 54.6 µM (inactive)
ACHN
  GI50: 30.1 µM (inactive)
A498
  GI50: 38.1 µM (inactive)
HOP-62
  GI50: 35.4 µM (inactive)
SN12C
  GI50: 62.5 µM (inactive)
EKVX
  GI50: 62.2 µM (inactive)
HCT-116
  GI50: 43.2 µM (inactive)
T47D
  GI50: 49.5 µM (inactive)
SF-539
  GI50: 31.7 µM (inactive)
MDA-MB-231
  GI50: 25.2 µM (inactive)
UACC-257
  GI50: 85.5 µM (inactive)
Malme-3M
  GI50: > 100 µM (inactive)
CAKI-1
  GI50: 45.4 µM (inactive)
NCI-H23
  GI50: 80.4 µM (inactive)
LOX IMVI
  GI50: 33.8 µM (inactive)
CCRF-CEM
  GI50: 8.39 µM (inactive)

## COC(C)(C)CCc1[nH]c2ccccc2c1CC(=O)NCCc1cncn1C
SK-MEL-5
  GI50: > 100 µM (inactive)
BT-549
  GI50: > 100 µM (inactive)
Hs-578T
  GI50: > 100 µM (inactive)
KM12
  GI50: > 100 µM (inactive)
A549
  GI50: > 100 µM (inactive)
HOP-92
  GI50: > 100 µM (inactive)
NCI-H226
  GI50: > 100 µM (inactive)
DU-145
  GI50: > 100 µM (inactive)
SW-620
  GI50: > 100 µM (inactive)
OVCAR-5
  GI50: > 100 µM (inactive)
PC-3
  GI50: > 100 µM (inactive)
SK-MEL-2
  GI50: > 100 µM (inactive)
SR
  GI50: > 100 µM (inactive)
MOLT-4
  GI50: > 100 µM (inactive)
HCT-15
  GI50: > 100 µM
IGROV-1
  GI50: > 100 µM (inactive)
NCI-H460
  GI50: > 100 µM (inactive)
U-251
  GI50: > 100 µM (inactive)
MDA-MB-435
  GI50: > 100 µM (inactive)
OVCAR-3
  GI50: > 100 µM (inactive)
K562
  GI50: > 100 µM (inactive)
TK-10
  GI50: > 100 µM (inactive)
UO-31
  GI50: > 100 µM (inactive)
HCC 2998
  GI50: > 100 µM (inactive)
OVCAR-4
  GI50: > 100 µM (inactive)
RXF 393
  GI50: > 100 µM (inactive)
SF-268
  GI50: > 100 µM (inactive)
HL-60
  GI50: > 100 µM (inactive)
OVCAR-8
  GI50: > 100 µM (inactive)
SNB-19
  GI50: > 100 µM (inactive)
SNB-75
  GI50: > 100 µM (inactive)
HT-29
  GI50: > 100 µM (inactive)
MDA-N
  GI50: > 100 µM (inactive)
MCF7
  GI50: > 100 µM (inactive)
786-0
  GI50: > 100 µM (inactive)
UACC-62
  GI50: > 100 µM (inactive)
SK-MEL-28
  GI50: > 100 µM (inactive)
RPMI-8226
  GI50: > 100 µM (inactive)
NCI/ADR-RES
  GI50: > 100 µM (inactive)
M14
  GI50: > 100 µM (inactive)
SK-OV-3
  GI50: > 100 µM (inactive)
COLO 205
  GI50: > 100 µM (inactive)
NCI-H522
  GI50: > 100 µM (inactive)
ACHN
  GI50: > 100 µM (inactive)
A498
  GI50: 34.3 µM (inactive)
SN12C
  GI50: > 100 µM (inactive)
EKVX
  GI50: > 100 µM (inactive)
HCT-116
  GI50: > 100 µM (inactive)
T47D
  GI50: > 100 µM (inactive)
SF-539
  GI50: > 100 µM (inactive)
MDA-MB-231
  GI50: > 100 µM (inactive)
UACC-257
  GI50: > 100 µM (inactive)
Malme-3M
  GI50: > 100 µM (inactive)
CAKI-1
  GI50: > 100 µM (inactive)
NCI-H23
  GI50: > 100 µM (inactive)
LOX IMVI
  GI50: > 100 µM (inactive)
CCRF-CEM
  GI50: > 100 µM (inactive)
